pIC50: −log10 of the molar value.
Key:
integrin α4β1 = target: T1, integrin α4β1 (Homo sapiens, UniProt P05556+P13612); assay: VCAM antagonist activity (VCAM-1/α4β1 binding assay); format: cell-based; conditions: Jurkat cells binding to VCAM-1; read-out: VCAM antagonistic activity (IC50) α4β1
T1 construct: cell strain Jurkat (ATCC TIB-152) of human T cells, known to express integrin α4β1; host or cells: Jurkat (human T cell line)
Method: (Test Example) VCAM Antagonist Activity (VCAM-1/α4β1 Binding Assay):
The capacity of a test substance antagonistic to the binding of cell strain Jurkat (ATCC TIB-152) of human T cells, known to express integrin α4β1, to VCAM-1 was determined.
(§1) 100 μl/well of a solution (500 ng/ml) of recombinant human VCAM-1 (R & D systems) solution diluted with buffer A (0.1 M NaHCO3, pH 9.6) was added to a micro titer plate having 96 wells (Nunc Maxisorp). After the incubation at 4° C. overnight, unbound VCAM-1 was removed by washing once with PBS. After completion of the washing, a buffer (buffer B) obtained by diluting Block Ace® (Dainippon Pharmaceutical Co., Ltd.) with PBS to 1/4 concentration was added in an amount of 150 μl/well. After the incubation at room temperature for 1 hour, buffer B was removed and the plate was washed with PBS once.
Jurkat cells were washed with Dulbecco modified Eagle medium (SIGMA, hereinafter referred to as “DMEM”) twice and then incubated in DMEM containing 10 μg/ml of Calcein-AM (Wako Pure Chemical Industries, Ltd.) at 37° C. in dark place for 30 minutes to label with fluorescence. The cells were again suspended in a binding buffer (20 mM HEPES, DMEM containing 0.1% BSA).
(§2) 50 μl of a test substance of various concentrations obtained by the dilution with the binding buffer was added to the plate. Immediately thereafter, 50 μl (final volume: 100 μl/well) of the fluorescent Jurkat cells (4×10^6 cells/ml) were added thereto, and they were incubated at room temperature for 30 minutes. After the shaking on a plate shaker (IKA MTS-4) at 800 rpm for 30 seconds, the solution was immediately removed to remove the unbound cells. The fluorescence quantity of the bound cells remaining in the wells was determined with a fluorescent plate reader (Wallac 1420 ARVO multi-label counter) (filter excitation wave length: 485 nm, emission wave length: 535 nm). The fluorescent strength thus obtained is proportional to the number of Jurkat cells bound to VCAM-1 and remaining on the plate. The binding rate of each test material in various concentrations was determined while the fluorescent strength of the test material-free well was determined to be 100%. The concentration IC50 for the 50% binding inhibition was calculated.
(§3) The activities were classified into group A wherein IC50 was 0.02 μmol/l or below, group B wherein IC50 was higher than 0.02 μmol/l and not above 0.1 μmol/l, group C wherein IC50 was higher than 0.1 μmol/l and not above 2 μmol/l, and group D wherein IC50 was higher than 2 μmol/l and not above 10 μmol/l.

integrin α4β7 = target: T2, integrin α4β7 (Homo sapiens, UniProt P13612+P26010); assay: VCAM antagonistic activity (VCAM-1/α4β7 binding assay); format: cell-based; conditions: RPMI-8866 cells binding to VCAM-1; read-out: VCAM antagonistic activity (IC50) α4β7
T2 construct: lymphoma cell strain RPMI-8866 of human B cells, known to express integrin α4β7; endogenous in cells; host or cells: RPMI-8866 (human B lymphoma cell line)
T2 sequence (P13612 34-1032): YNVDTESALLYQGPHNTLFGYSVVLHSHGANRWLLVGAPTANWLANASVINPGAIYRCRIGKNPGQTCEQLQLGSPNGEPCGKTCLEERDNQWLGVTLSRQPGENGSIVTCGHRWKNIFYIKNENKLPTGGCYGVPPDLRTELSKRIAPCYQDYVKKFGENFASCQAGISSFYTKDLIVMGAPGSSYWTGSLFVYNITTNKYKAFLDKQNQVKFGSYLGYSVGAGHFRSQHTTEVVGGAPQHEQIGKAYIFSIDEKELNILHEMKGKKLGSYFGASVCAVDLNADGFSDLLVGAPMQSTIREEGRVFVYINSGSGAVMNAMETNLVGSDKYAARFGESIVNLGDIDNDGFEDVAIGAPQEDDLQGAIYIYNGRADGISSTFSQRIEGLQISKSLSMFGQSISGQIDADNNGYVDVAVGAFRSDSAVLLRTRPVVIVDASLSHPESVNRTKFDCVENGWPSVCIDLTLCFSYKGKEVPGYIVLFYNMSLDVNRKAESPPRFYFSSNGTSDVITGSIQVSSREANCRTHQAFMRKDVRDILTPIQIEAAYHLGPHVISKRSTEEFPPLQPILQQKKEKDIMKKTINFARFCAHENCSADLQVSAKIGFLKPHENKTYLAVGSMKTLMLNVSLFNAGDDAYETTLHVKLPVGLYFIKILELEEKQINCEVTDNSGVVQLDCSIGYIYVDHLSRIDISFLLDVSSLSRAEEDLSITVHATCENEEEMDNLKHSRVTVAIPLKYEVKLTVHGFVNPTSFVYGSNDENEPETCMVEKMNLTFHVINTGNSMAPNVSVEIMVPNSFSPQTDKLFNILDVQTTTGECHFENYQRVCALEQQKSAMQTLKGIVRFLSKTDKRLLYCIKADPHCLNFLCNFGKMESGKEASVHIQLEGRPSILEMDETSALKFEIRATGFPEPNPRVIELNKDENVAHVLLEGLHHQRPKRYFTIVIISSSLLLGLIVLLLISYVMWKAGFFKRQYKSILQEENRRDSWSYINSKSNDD
T2 sequence (P26010 20-798): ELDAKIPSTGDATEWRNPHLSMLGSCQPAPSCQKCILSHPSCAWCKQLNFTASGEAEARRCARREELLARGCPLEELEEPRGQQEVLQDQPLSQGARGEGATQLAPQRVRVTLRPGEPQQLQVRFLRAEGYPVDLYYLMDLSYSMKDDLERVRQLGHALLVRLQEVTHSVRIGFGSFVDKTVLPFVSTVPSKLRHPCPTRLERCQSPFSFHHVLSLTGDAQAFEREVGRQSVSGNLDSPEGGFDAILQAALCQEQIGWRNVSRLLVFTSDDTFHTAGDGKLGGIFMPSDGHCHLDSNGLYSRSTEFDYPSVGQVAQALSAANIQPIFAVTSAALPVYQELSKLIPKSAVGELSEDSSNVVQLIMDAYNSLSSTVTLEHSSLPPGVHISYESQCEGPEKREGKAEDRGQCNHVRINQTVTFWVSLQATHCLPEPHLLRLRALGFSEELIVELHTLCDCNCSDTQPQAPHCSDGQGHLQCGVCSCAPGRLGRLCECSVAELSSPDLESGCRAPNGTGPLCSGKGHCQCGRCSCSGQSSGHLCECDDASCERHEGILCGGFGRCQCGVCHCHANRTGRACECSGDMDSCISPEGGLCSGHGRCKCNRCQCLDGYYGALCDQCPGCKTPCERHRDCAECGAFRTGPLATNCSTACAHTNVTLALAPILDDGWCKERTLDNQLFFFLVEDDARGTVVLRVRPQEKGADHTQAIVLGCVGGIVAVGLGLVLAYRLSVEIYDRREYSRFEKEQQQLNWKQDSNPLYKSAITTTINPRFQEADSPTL
Method: (Test Example) VCAM Antagonistic Activity (VCAM-1/α4β7 Binding Assay):
The capacity of a test substance antagonistic to the binding of lymphoma cell strain RPMI-8866 of human B cells, known to express integrin α4β7, to VCAM-1 was determined.
as §1
RPMI-8866 cells were incubated in Dulbecco modified Eagle medium containing 10 μg/ml of Calcein-AM (Wako Pure Chemical Industries, Ltd.) (SIGMA, hereinafter referred to as “DMEM”) at 37° C. for 30 minutes to label with fluorescence. The cells were again suspended in a binding buffer (20 mM HEPES, DMEM containing 0.1% BSA) containing 4 mM of MnCl2.
as §2, with “RPMI-8866” for “Jurkat”
as §3

T1 sequence (P05556 21-798, one chain of several): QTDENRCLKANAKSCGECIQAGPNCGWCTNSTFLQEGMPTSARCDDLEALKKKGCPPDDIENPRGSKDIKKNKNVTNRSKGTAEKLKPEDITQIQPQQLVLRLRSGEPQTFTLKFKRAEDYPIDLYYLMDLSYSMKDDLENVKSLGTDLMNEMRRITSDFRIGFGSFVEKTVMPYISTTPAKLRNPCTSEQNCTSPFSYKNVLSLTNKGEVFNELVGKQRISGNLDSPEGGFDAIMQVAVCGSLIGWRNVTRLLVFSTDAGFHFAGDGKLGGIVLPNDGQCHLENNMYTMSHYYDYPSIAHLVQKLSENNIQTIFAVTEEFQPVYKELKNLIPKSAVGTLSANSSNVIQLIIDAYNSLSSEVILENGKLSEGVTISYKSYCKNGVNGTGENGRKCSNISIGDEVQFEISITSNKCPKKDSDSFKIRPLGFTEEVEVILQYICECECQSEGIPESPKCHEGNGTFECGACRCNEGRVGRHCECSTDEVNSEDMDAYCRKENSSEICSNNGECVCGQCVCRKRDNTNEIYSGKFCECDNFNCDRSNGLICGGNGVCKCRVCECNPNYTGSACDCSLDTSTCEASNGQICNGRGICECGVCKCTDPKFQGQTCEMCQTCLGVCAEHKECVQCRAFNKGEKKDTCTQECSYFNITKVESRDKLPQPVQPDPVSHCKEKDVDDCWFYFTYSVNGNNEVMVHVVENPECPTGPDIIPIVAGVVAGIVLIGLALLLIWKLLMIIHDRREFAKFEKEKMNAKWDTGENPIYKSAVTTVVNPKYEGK

Row | Compound | pIC50 (integrin α4β1) | pIC50 (integrin α4β7)
1 | CCC(C)(C(=O)NC(Cc1ccc(OCc2c(Cl)cccc2Cl)cc1)C(=O)O)C(=O)N1CCCC1 (mixture of isomers) [Example 38] | 5.70 to 7.00 | 5.70 to 7.00
2 | CN(C(=O)C1(C(=O)N[C@@H](Cc2ccc(OCc3c(Cl)cccc3Cl)cc2)C(=O)O)CC1)c1ccccc1 [Example 23] | 5.00 to 5.70 | 5.70 to 7.00
3 | CCC(CC)(C(=O)N[C@@H](Cc1ccc(OCc2c(Cl)cccc2Cl)cc1)C(=O)O)C(=O)N1CC[C@@H](N(C)C)C1 [Example 44] | 5.70 to 7.00 | > 7.70
4 | CCC(CC)(C(=O)N[C@@H](Cc1ccc(OCc2c(Cl)cccc2Cl)cc1)C(=O)O)C(=O)N1CC[C@H](N)C1 [Example 66] | 5.70 to 7.00 | 7.00 to 7.70
5 | CCC(CC)(C(=O)N[C@@H](Cc1ccc(OCc2c(Cl)cccc2Cl)cc1)C(=O)O)C(=O)N1CC[C@H](O)C1 [Example 65] | 5.70 to 7.00 | > 7.70
6 | CCC(CC)(C(=O)NC(Cc1ccc(OCc2c(Cl)cccc2Cl)cc1)C(=O)O)C(=O)N1CCCC1C(=O)OC (stereo not shown) [Example 56] | 5.70 to 7.00 | > 7.70
7 | CCC(CC)(C(=O)N[C@@H](Cc1ccc(OCc2c(Cl)cccc2Cl)cc1)C(=O)O)C(=O)N1CCCCC1 [Example 17] | 5.70 to 7.00 | 5.70 to 7.00
8 | CSc1ncc(Cl)c(C(=O)Nc2ccc(C[C@H](NC(=O)C3(C(=O)N(C)C)CC3)C(=O)O)cc2)n1 [Example 85, N-[1-N,N-dimethylaminocarbonylcyclopropane-1-ylcarbonyl]-4-({[5-chloro-2-(methylthio)pyrimidine-4-yl]carbonyl}-amino)-L-phenylalanine] | 5.70 to 7.00 | > 7.70
9 | CCN(C)C(=O)C(CC)(CC)C(=O)N[C@@H](Cc1ccc(OCc2c(Cl)cccc2Cl)cc1)C(=O)O [Example 41] | 5.70 to 7.00 | 7.00 to 7.70

Further lines, results first:

Row | pIC50 (integrin α4β1) | pIC50 (integrin α4β7) | Compound
10 | 5.70 to 7.00 | > 7.70 | CCC(CC)(C(=O)N[C@@H](Cc1ccc(OCc2c(Cl)cccc2Cl)cc1)C(=O)O)C(=O)N1CCC[C@H]1CN1CCCC1 [Example 53]
11 | 5.70 to 7.00 | 7.00 to 7.70 | CCC(CC)(C(=O)N[C@@H](Cc1ccc(OCc2c(Cl)cccc2Cl)cc1)C(=O)O)C(=O)N1CCCN(C=O)CC1 [Example 61]
12 | 5.70 to 7.00 | > 7.70 | CCC(CC)(C(=O)N[C@@H](Cc1ccc(OCc2c(Cl)cccc2Cl)cc1)C(=O)O)C(=O)N1C[C@H](O)C[C@H]1C(=O)OC [Example 46]
13 | 5.70 to 7.00 | 5.70 to 7.00 | CN(C)C(=O)C1(C(=O)N[C@@H](Cc2ccc(NC(=O)c3cc(Br)ccc3Br)cc2)C(=O)O)CC1 [Example 88]
14 | 7.00 to 7.70 | > 7.70 | CCC(CC)(C(=O)N[C@@H](Cc1ccc(NC(=O)c2nc(SC)ncc2Cl)cc1)C(=O)O)C(=O)N1CCCC1 [Example 94, N-[2-(pyrrolidine-1-ylcarbonyl)-2-ethyl-butanoyl]-4-({[5-chloro-2-(methylthio)pyrimidine-4-yl]carbonyl}amino)-L-phenylalanine]
15 | 5.70 to 7.00 | 7.00 to 7.70 | CCC(CC)(C(=O)N[C@@H](Cc1ccc(OCc2c(Cl)cccc2Cl)cc1)C(=O)O)C(=O)N1CC[C@@H](NC)C1 [Example 64]
16 | 5.70 to 7.00 | 5.70 to 7.00 | COc1ccc(Br)c(C(=O)Nc2ccc(C[C@H](NC(=O)C3(C(=O)N(C)C)CC3)C(=O)O)cc2)c1 [Example 89]
17 | 5.70 to 7.00 | > 7.70 | CCC(CC)(C(=O)N[C@@H](Cc1ccc(OCc2c(Cl)cccc2Cl)cc1)C(=O)O)C(=O)N1CC[C@@H](F)C1 [Example 84]
18 | 5.70 to 7.00 | 7.00 to 7.70 | O=C1CCN(C(=O)C2(C(=O)N[C@@H](Cc3ccc(OCc4c(Cl)cccc4Cl)cc3)C(=O)O)CC2)C1 [Example 59]
19 | 7.00 to 7.70 | > 7.70 | CCC(CC)(C(=O)N[C@@H](Cc1ccc(NC(=O)c2nc([S+](C)[O-])ncc2Cl)cc1)C(=O)O)C(=O)N1CCCC1 (stereo partly drawn) [Example 478, N-[2-(pyrrolidine-1-ylcarbonyl)-2-ethyl-butanoyl]-4-({[5-chloro-2-(methylsulfinyl)pyrimidine-4-yl]carbonyl}amino)-L-phenyl-alanine]
20 | 7.00 to 7.70 | > 7.70 | CCC(CC)(C(=O)N[C@@H](Cc1ccc(OCc2c(Cl)cccc2Cl)cc1)C(=O)O)C(=O)N1CC(O)C(Cl)C1 (stereo partly shown) [Example 82]
